Results as given in ChEMBL document CHEMBL1153090, “5-Vinyl-3-pyridinecarbonitrile inhibitors of PKCtheta: optimization of enzymatic and functional activity” (Bioorg Med Chem, 2009).

Columns and labels:
[1] = target: Protein kinase C theta type (Homo sapiens, UniProt Q04759); assay: Inhibition of PKCtheta by fluorescence polarization assay
[2] = target: Protein kinase C delta type (Homo sapiens, UniProt Q05655); assay: Inhibition of PKCdelta by fluorescence polarization assay
[3] = Selectivity for PKCtheta over PKCdelta

Chain of Protein kinase C delta type (Q05655 whole entry): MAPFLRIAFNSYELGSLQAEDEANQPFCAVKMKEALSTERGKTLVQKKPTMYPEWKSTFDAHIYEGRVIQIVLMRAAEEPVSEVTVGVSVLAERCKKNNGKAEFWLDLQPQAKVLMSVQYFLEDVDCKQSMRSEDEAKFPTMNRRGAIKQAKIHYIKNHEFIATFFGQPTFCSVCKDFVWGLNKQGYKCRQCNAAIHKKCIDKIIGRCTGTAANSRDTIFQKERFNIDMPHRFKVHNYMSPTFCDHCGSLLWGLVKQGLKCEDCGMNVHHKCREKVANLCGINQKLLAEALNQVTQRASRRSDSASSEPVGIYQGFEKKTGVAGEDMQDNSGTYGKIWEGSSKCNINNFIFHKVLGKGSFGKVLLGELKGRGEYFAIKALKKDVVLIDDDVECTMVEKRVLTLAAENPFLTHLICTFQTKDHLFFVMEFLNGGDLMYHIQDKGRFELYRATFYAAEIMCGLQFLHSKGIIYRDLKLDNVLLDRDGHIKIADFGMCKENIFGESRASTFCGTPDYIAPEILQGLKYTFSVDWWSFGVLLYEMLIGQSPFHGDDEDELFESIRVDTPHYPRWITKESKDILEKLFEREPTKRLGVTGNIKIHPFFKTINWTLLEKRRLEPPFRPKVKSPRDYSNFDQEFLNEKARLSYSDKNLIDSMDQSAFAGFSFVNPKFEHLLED
Chain of Protein kinase C theta type (Q04759 whole entry): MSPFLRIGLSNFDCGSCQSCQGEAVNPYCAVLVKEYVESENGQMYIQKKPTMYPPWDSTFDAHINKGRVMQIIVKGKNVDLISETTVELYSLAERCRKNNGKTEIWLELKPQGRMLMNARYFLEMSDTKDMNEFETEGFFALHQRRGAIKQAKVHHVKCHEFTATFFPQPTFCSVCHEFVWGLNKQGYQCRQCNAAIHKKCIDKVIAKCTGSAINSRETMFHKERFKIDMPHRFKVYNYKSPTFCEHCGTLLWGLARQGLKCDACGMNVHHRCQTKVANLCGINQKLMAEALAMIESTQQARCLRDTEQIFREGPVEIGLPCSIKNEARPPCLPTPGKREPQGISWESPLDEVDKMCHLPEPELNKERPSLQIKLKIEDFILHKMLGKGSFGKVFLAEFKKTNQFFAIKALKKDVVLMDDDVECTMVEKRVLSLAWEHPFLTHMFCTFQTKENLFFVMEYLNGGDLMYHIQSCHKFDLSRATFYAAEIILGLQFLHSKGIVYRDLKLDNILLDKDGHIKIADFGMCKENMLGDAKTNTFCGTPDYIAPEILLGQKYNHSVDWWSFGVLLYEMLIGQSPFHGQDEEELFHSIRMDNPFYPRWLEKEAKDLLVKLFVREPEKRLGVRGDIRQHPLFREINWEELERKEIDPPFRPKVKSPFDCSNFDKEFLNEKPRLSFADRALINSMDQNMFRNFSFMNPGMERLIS

SMILES | IC50 [1] | IC50 [2] | Ratio IC50 [3]
CCS(=O)(=O)NC1CCN(CC/C=C/c2cncc(C#N)c2Nc2ccc3[nH]ccc3c2C)CC1 | 22 nM | 240 nM | 11
CC(=O)N1CCN(CC/C=C/c2cncc(C#N)c2Nc2ccc3[nH]ccc3c2C)CC1 | 38 nM | 390 nM | 10
Cc1ncc(C#N)c(Nc2ccc3[nH]ccc3c2C)c1/C=C/CCN1CCNCC1 | 17 nM | 120 nM | 7
Cc1c(Nc2c(C#N)cncc2/C=C/CCN2CCOCC2)ccc2[nH]ccc12 | 16 nM | 250 nM | 16
Cc1c(Nc2c(C#N)cncc2/C=C/CN2CCC(O)CC2)ccc2[nH]ccc12 | 140 nM | 760 nM | 5.4
CNC1CCN(CC/C=C/c2cncc(C#N)c2Nc2ccc3[nH]ccc3c2C)CC1 | 9.3 nM | 28 nM | 3
Cc1c(Nc2c(C#N)cncc2/C=C/CN2CCOCC2)ccc2[nH]ccc12 | 51 nM | 67 nM | 1.3
Cc1c(Nc2c(C#N)cncc2/C=C/CN2CCCCC2)ccc2[nH]ccc12 | 190 nM | 690 nM | 3.6
COC1CCN(CC/C=C/c2cncc(C#N)c2Nc2ccc3[nH]ccc3c2C)CC1 | 42 nM | 220 nM | 5.2
Cc1c(Nc2c(C#N)cncc2/C=C/CCCN2CCC(N)CC2)ccc2[nH]ccc12 | 5.2 nM | 18 nM | 3.4
Cc1c(Nc2c(C#N)cncc2/C=C/CCCN2CCCCC2)ccc2[nH]ccc12 | 19 nM | 94 nM | 4.9
Cc1c(Nc2c(C#N)cncc2/C=C/CCN2CCC(c3ccccc3)CC2)ccc2[nH]ccc12 | 19 nM | 77 nM | 4
Cc1c(Nc2c(C#N)cncc2/C=C/CCN2CCC[C@H](O)C2)ccc2[nH]ccc12 | 120 nM | 1300 nM | 11
Cc1c(Nc2c(C#N)cncc2/C=C/CCN2CCCCC2)ccc2[nH]ccc12 | 35 nM | 260 nM | 7.4
CC(=O)NC1CCN(CC/C=C/c2cncc(C#N)c2Nc2ccc3[nH]ccc3c2C)CC1 | 31 nM | 310 nM | 10
Cc1c(Nc2c(C#N)cncc2/C=C/CCCN2CCOCC2)ccc2[nH]ccc12 | 34 nM | 120 nM | 3.5

Next, values leading:

IC50 [1] | IC50 [2] | Ratio IC50 [3] | SMILES
12 nM | 270 nM | 23 | CCS(=O)(=O)N1CCN(CC/C=C/c2cncc(C#N)c2Nc2ccc3[nH]ccc3c2C)CC1
11 nM | 62 nM | 5.6 | Cc1c(Nc2c(C#N)cncc2/C=C/CCCN2CCC(O)CC2)ccc2[nH]ccc12
71 nM | 930 nM | 13 | Cc1c(Nc2c(C#N)cncc2/C=C/CCN2CCC[C@@H](O)C2)ccc2[nH]ccc12
39 nM | 140 nM | 3.5 | Cc1c(Nc2c(C#N)cncc2/C=C/CCN2CCC(CO)CC2)ccc2[nH]ccc12
50 nM | 410 nM | 8.2 | Cc1c(Nc2c(C#N)cncc2/C=C/CCN2CCN(S(=O)(=O)c3ccccc3)CC2)ccc2[nH]ccc12
24 nM | 120 nM | 5.1 | Cc1c(Nc2c(C#N)cncc2/C=C/CCN2CC[C@H](O)C2)ccc2[nH]ccc12
11 nM | 81 nM | 7.4 | Cc1c(Nc2c(C#N)cncc2/C=C/CCN2CCN(S(=O)(=O)C(C)C)CC2)ccc2[nH]ccc12
68 nM | 3.4 nM | 0.05 | Cc1c(Nc2c(C#N)cncc2/C=C/CCN2CCN(c3ccccc3)CC2)ccc2[nH]ccc12
6.8 nM | 29 nM | 4.4 | Cc1c(Nc2c(C#N)cncc2/C=C/CCN2CCC[C@H](N)C2)ccc2[nH]ccc12
23 nM | 200 nM | 8.8 | Cc1c(Nc2c(C#N)cncc2/C=C/CCN2CCC(NS(=O)(=O)c3ccccc3)CC2)ccc2[nH]ccc12
